How the values were obtained:
[1] = system: Phospho-ERK1/2(THR202/TYR204) in NCI-H358 cells express KRAS G12C; assay: Phospho-ERK1/2(THR202/TYR204) HTRF assay; assay type: cell-based; details: Homo sapiens; NCI-H358, 2 hours incubation; read-out: p-ERK inhibition in NCI-H358 IC50
In short: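 Compounds applied to attached cells for 2 h at 37 °C in RPMI 1640 with 0.1% FBS. Lysate phospho-ERK1/2 detected by HTRF after 4 h antibody incubation at 25 °C; IC50 from 4-parameter logistic fit.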

[2] = system: NCI-H358 cells express KRAS G12C; assay: Cell growth inhibition assay (CCK-8); assay type: cell-based; details: Homo sapiens, 144 h; NCI-H358, 6 days incubation
In short: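 Antiproliferative read-out: KRAS G12C-mutant NCI-H358 lung cancer cells (3000/well) exposed to compounds in RPMI 1640 with 10% FBS for 6 days at 37°C. Viability by CCK-8 (OD450) after 1.5-2 h; IC50 from 4-parameter logistic fit.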

KRAS G12C = biological target: T1, KRAS G12C (Homo sapiens, UniProt P01116, G12C); assay: SOS1 catalyzed nucleotide exchange assay (TR-FRET); assay type: biochemical; details: GDP-loaded HIS-KRAS(G12C), 1 hour pre-incubation with compound
T1 construct: HIS-KRAS (G12C, aa 2-185, Sino biological); purchased Sino biological
T1 sequence (P01116 2-185 isoform P01116-2 G12C): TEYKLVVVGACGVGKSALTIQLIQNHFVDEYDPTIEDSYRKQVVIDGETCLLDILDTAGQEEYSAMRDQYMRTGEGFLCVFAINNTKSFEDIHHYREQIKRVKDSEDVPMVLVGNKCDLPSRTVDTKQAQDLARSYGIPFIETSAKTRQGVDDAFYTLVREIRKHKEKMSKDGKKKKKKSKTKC
In short: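 EDTA-stripped, GDP-loaded His-KRAS G12C (aa 2-185; 3 nM final) preincubated 1 h with compound, then SOS1 ExD (aa 564-1049; 2 μM) and BODIPY-FL GTP (80 nM) added for 4 h at 25 °C. TR-FRET via anti-His Tb cryptate (515/486 nm ratio); IC50 from 4-parameter logistic fit.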

Row | Compound | IC50 [1] | IC50 [2] | IC50 (KRAS G12C)
1 | C=CC(=O)N1CCN(c2nc(OCC3(N(C)C)CC3)nc3c2CCN(c2cccc4cccc(C)c24)C3)CC1CC#N (stereo not drawn) [Compound 20, 2-(1-acryloyl-4-(2-((1-(dimethylamino)cyclopropyl)methoxy)-7-(8-methylnaphthalen-1-yl)-5,6,7,8-tetrahydropyrido[3,4-d]pyrimidin-4-yl)piperazin-2-yl)acetonitrile] | 127 nM | 102 nM | 19.4 nM
2 | C=CC(=O)N1CCN(c2nc(OCC3(CN4CCCC4)CC3)nc3c2CCN(c2cccc(Cl)c2Cl)C3)CC1CC#N (stereo not drawn) [Compound 35, 2-(1-acryloyl-4-(7-(2,3-dichlorophenyl)-2-((1-(pyrrolidin-1-ylmethyl)cyclopropyl)methoxy)-5,6,7,8-tetrahydropyrido[3,4-d]pyrimidin-4-yl)piperazin-2-yl)acetonitrile] | 85.3 nM | 106 nM | 17.9 nM
3 | C=C(F)C(=O)N1CCN(c2nc(OCC3(CN4CCN(C)CC4)CC3)nc3c2CCN(c2cccc4cccc(C)c24)C3)CC1CC#N (stereo not drawn) [Compound 71, 2-(1-(2-fluoroacryloyl)-4-(7-(8-methylnaphthalen-1-yl)-2-((1-((4-methylpiperazin-1-yl)methyl)cyclopropyl)methoxy)-5,6,7,8-tetrahydropyrido[3,4-d]pyrimidin-4-yl)piperazin-2-yl)acetonitrile] | 505 nM | 369 nM | 7.57 nM
4 | C=CC(=O)N1CCN(c2nc(OCC3CCCC3N(C)C)nc3c2CCN(c2cccc4cccc(C)c24)C3)CC1CC#N (stereo not drawn) [Compound 23, 2-(1-acryloyl-4-(2-((2-(dimethylamino)cyclopentyl)methoxy)-7-(8-methylnaphthalen-1-yl)-5,6,7,8-tetrahydropyrido[3,4-d]pyrimidin-4-yl)piperazin-2-yl)acetonitrile] | 112 nM | 66.8 nM | 9.45 nM
5 | Cc1cccc2cccc(N3CCc4c(nc(OCC5(CN(C)C)CC5)nc4N4CCN(C(=O)/C=C/CN(C)C)C(CC#N)C4)C3)c12 (stereo not drawn) [Compound 85, (E)-2-(1-(4-(dimethylamino)but-2-enoyl)-4-(2-((1-((dimethylamino)methyl)cyclopropyl)methoxy)-7-(8-methylnaphthalen-1-yl)-5,6,7,8-tetrahydropyrido[3,4-d]pyrimidin-4-yl)piperazin-2-yl)acetonitrile] | 153 nM | 132 nM | 2.86 nM
6 | C=CC(=O)N1CCN(c2nc(OCC3(CN4CC[C@H](N(C)C)C4)CC3)nc3c2CCN(c2cccc4cccc(C)c24)C3)CC1CC#N (stereo partly drawn) [Compound 65, 2-(1-acryloyl-4-(2-((1-(((S)-3-(dimethylamino)pyrrolidin-1-yl)methyl)cyclopropyl)methoxy)-7-(8-methylnaphthalen-1-yl)-5,6,7,8-tetrahydropyrido[3,4-d]pyrimidin-4-yl)piperazin-2-yl)acetonitrile] | 87.8 nM | 32.8 nM | 1.46 nM
7 | C=CC(=O)N1CCN(c2nc(OCC3(N(C)C)CC3)nc3c2CCN(c2cccc4ccccc24)C3)CC1CC#N (stereo not drawn) [Compound 12, 2-(1-acryloyl-4-(2-((1-(dimethylamino)cyclopropyl)methoxy)-7-(naphthalen-1-yl)-5,6,7,8-tetrahydropyrido[3,4-d]pyrimidin-4-yl)piperazin-2-yl)acetonitrile] | 518 nM | 645 nM | 176 nM
8 | C=CC(=O)N1CCN(c2nc(OCC3(C(=O)N4CCN(C)CC4)CC3)nc3c2CCN(c2cccc4cccc(C)c24)C3)CC1CC#N (stereo not drawn) [Compound 63, 2-(1-acryloyl-4-(7-(8-methylnaphthalen-1-yl)-2-((1-(4-methylpiperazine-1-carbonyl)cyclopropyl)methoxy)-5,6,7,8-tetrahydropyrido[3,4-d]pyrimidin-4-yl)piperazin-2-yl)acetonitrile] | 533 nM | 861 nM | 30.9 nM
9 | C=CC(=O)N1CCN(c2nc(OCC3(CN4CCC4)CC3)nc3c2CCN(c2cccc4cccc(Cl)c24)C3)CC1CC#N (stereo not drawn) [Compound 42, 2-(1-acryloyl-4-(2-((1-(azetidin-1-ylmethyl)cyclopropyl)methoxy)-7-(8-chloronaphthalen-1-yl)-5,6,7,8-tetrahydropyrido[3,4-d]pyrimidin-4-yl)piperazin-2-yl)acetonitrile] | 63.6 nM | 118 nM | 5.24 nM
10 | C=CC(=O)N1CCN(c2nc(OCC3(CN(C)C)CC3)nc3c2CCN(c2cccc4ccsc24)C3)CC1CC#N (stereo not drawn) [Compound 50, 2-(1-acryloyl-4-(7-(benzo[b]thiophen-7-yl)-2-((1-((dimethylamino)methyl)cyclopropyl)methoxy)-5,6,7,8-tetrahydropyrido[3,4-d]pyrimidin-4-yl)piperazin-2-yl)acetonitrile] | 83.8 nM | 202 nM | 8.66 nM
11 | C=CC(=O)N1CCN(c2nc(OCC3(CN4CCC4)CC3)nc3c2CCN(c2cccc4ccccc24)C3)CC1CC#N (stereo not drawn) [Compound 41, 2-(1-acryloyl-4-(2-((1-(azetidin-1-ylmethyl)cyclopropyl)methoxy)-7-(naphthalen-1-yl)-5,6,7,8-tetrahydropyrido[3,4-d]pyrimidin-4-yl)piperazin-2-yl)acetonitrile] | 149 nM | 179 nM | 13.5 nM
12 | C=CC(=O)N1CCN(c2nc(OCC3(CN4CCCC4)CC3)nc3c2CCN(c2cccc4cccc(Cl)c24)C3)CC1CC#N (stereo not drawn) [Compound 61, 2-(1-acryloyl-4-(7-(8-chloronaphthalen-1-yl)-2-((1-(pyrrolidin-1-ylmethyl)cyclopropyl)methoxy)-5,6,7,8-tetrahydropyrido[3,4-d]pyrimidin-4-yl)piperazin-2-yl)acetonitrile] | 16.2 nM | 25.1 nM | 1.44 nM
13 | C=CC(=O)N1CCN(c2nc(OCC3CCCC(N(C)C)C3)nc3c2CCN(c2cccc4cccc(C)c24)C3)CC1CC#N (stereo not drawn) [Compound 5, 2-(1-acryloyl-4-(2-((3-(dimethylamino)cyclohexyl)methoxy)-7-(8-methylnaphthalen-1-yl)-5,6,7,8-tetrahydropyrido[3,4-d]pyrimidin-4-yl)piperazin-2-yl)acetonitrile] | 330 nM | 174 nM | 19.6 nM
14 | COC/C=C/C(=O)N1CCN(c2nc(OCC3(CN(C)C)CC3)nc3c2CCN(c2cccc4cccc(C)c24)C3)CC1CC#N (stereo not drawn) [Compound 70, (E)-2-(4-(2-((1-((dimethylamino)methyl)cyclopropyl)methoxy)-7-(8-methylnaphthalen-1-yl)-5,6,7,8-tetrahydropyrido[3,4-d]pyrimidin-4-yl)-1-(4-methoxybut-2-enoyl)piperazin-2-yl)acetonitrile] | 172 nM | 195 nM | 3.41 nM
15 | C=CC(=O)N1CCN(c2nc(OCC3CCCC3N(C)C)nc3c2CCN(c2cccc4ccccc24)C3)CC1CC#N (stereo not drawn) [Compound 14, 2-(1-acryloyl-4-(2-((2-(dimethylamino)cyclopentyl)methoxy)-7-(naphthalen-1-yl)-5,6,7,8-tetrahydropyrido[3,4-d]pyrimidin-4-yl)piperazin-2-yl)acetonitrile] | 234 nM | 217 nM | 54.1 nM
16 | C=CC(=O)N1CCN(c2nc(OCC3CCCC(N(C)C)C3)nc3c2CCN(c2cccc4ccccc24)C3)CC1CC#N (stereo not drawn) [Compound 15, 2-(1-acryloyl-4-(2-((3-(dimethylamino)cyclohexyl)methoxy)-7-(naphthalen-1-yl)-5,6,7,8-tetrahydropyrido[3,4-d]pyrimidin-4-yl)piperazin-2-yl)acetonitrile] | 876 nM | 497 nM | 333 nM
17 | C=CC(=O)N1CCN(c2nc(OCC3(CN(C)C)CC3)nc3c2CCN(c2cccc4sccc24)C3)CC1CC#N (stereo not drawn) [Compound 51, 2-(1-acryloyl-4-(7-(benzo[b]thiophen-4-yl)-2-((1-((dimethylamino)methyl)cyclopropyl)methoxy)-5,6,7,8-tetrahydropyrido[3,4-d]pyrimidin-4-yl)piperazin-2-yl)acetonitrile] | 77.1 nM | 99.9 nM | 3.28 nM
18 | C=CC(=O)N1CCN(c2nc(OCC3CCCC3N(C)C)nc3c2CCN(c2cccc(F)c2C(F)(F)F)C3)CC1CC#N (stereo not drawn) [Compound 26, 2-(1-acryloyl-4-(2-((2-(dimethylamino)cyclopentyl)methoxy)-7-(3-fluoro-2-(trifluoromethyl)phenyl)-5,6,7,8-tetrahydropyrido[3,4-d]pyrimidin-4-yl)piperazin-2-yl)acetonitrile] | 231 nM | 154 nM | 33.7 nM
19 | C/C=C/C(=O)N1CCN(c2nc(OCC3(CN4CCCC4)CC3)nc3c2CCN(c2cccc4cccc(C)c24)C3)CC1CC#N (stereo not drawn) [Compound 74, (E)-2-(1-(but-2-enoyl)-4-(7-(8-methylnaphthalen-1-yl)-2-((1-(pyrrolidin-1-ylmethyl)cyclopropyl)methoxy)-5,6,7,8-tetrahydropyrido[3,4-d]pyrimidin-4-yl)piperazin-2-yl)acetonitrile] | > 500 nM | 1520 nM | 66.8 nM

— patent US20210040089A1, “KRAS MUTANT PROTEIN INHIBITORS” (Jacobio Pharmaceuticals Co., Ltd., priority 2019, published 2021)
